In patent US20240366770A1, “DEGRADATION OF BRUTON'S TYROSINE KINASE (BTK) BY CONJUGATION OF BTK INHIBITORS WITH E3 LIGASE LIGAND AND METHODS OF USE” (BeiGene Switzerland GmbH, priority 2021, published 2024):

Key:
BTK = biological target: T1, BTK (Homo sapiens, UniProt Q06187); experiment: BTK degradation in TMD-8 cells (HTRF assay); assay type: cell-based; conditions: 6 h treatment, IC50 (DC50) of BTK degradation
T1 construct: High control=Cell group with added DMSO and without compound, indicating microplate readings without BTK degradation; endogenous in cells; host or cells: TMD-8
T1 sequence (Q06187 whole entry): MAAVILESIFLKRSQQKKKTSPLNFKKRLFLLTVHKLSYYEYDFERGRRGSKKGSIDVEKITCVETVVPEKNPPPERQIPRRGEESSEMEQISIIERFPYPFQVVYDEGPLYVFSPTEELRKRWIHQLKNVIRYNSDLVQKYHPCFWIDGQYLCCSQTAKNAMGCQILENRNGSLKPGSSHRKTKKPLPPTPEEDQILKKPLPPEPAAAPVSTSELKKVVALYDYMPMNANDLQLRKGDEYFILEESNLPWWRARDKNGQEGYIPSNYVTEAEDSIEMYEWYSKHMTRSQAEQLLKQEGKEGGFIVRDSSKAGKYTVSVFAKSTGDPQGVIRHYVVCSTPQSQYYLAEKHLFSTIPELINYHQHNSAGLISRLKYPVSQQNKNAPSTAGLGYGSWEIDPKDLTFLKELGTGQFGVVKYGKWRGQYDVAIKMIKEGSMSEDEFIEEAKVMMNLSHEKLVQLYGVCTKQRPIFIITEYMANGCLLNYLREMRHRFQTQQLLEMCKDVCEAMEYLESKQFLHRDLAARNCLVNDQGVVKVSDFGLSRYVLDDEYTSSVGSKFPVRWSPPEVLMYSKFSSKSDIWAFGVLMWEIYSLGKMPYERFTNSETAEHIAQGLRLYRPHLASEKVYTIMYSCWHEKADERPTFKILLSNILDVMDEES
In short: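 BTK remaining after compound treatment was measured by HTRF (337 nm excitation, 665/620 nm emission) in lysates of TMD-8 cells. Cells were exposed for 6 h to eight 6-fold-spaced concentrations in 0.2% DMSO. DC50 values were obtained from a Hill-equation fit (top, bottom, slope) of % inhibition.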

HEK-293 cells = experiment: HEK-293 cytotoxicity detection (CellTiter-Glo); assay type: cell-based; conditions: Homo sapiens; HEK-293 cells, 72 h incubation, CellTiter-Glo luminescence, IC50 of cell proliferation inhibition; read-out: HEK293
In short: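 Four-parameter logistic fitting of percent inhibition versus concentration gives IC50. Luminescent ATP read-out (CellTiter-Glo) after 72 h compound treatment of HEK-293 cells, 8 doses in 4-fold steps from a 5 mM 500× DMSO stock, final DMSO 0.2%.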

SMILES | DC50 (BTK) | IC50 (HEK-293 cells)
COc1cc2c(cc1N1CCN(CC3CCN(c4ccc(N5CCC(=O)NC5=O)cc4)CC3)CC1)[nH]c1ncnc(-c3ccc([C@@H](C)NC(=O)c4nc(C5(C)CC5)no4)c(C)c3F)c12 [Example 53, (R)—N-(1-(4-(7-(4-((1-(4-(2,4-dioxotetrahydropyrimidin-1(2H)-yl)phenyl)piperidin-4-yl)methyl)piperazin-1-yl)-6-methoxy-9H-pyrimido[4,5-b]indol-4-yl)-3-fluoro-2-methylphenyl)ethyl)-3-(1-methylcyclopropyl)-1,2,4-oxadiazole-5-carboxamide] | 2.26 nM | > 10000 nM
COc1cc2c(cc1N1CCN(CC3CCN(c4ccc(N5CCC(=O)NC5=O)cc4)CC3)CC1)[nH]c1ncnc(-c3ccc([C@@H](C)NC(=O)c4nc(C(C)(C)C)no4)c(C)c3F)c12 [Example 54, (R)-3-(tert-butyl)-N-(1-(4-(7-(4-((1-(4-(2,4-dioxotetrahydropyrimidin-1(2H)-yl)phenyl)piperidin-4-yl)methyl)piperazin-1-yl)-6-methoxy-9H-pyrimido[4,5-b]indol-4-yl)-3-fluoro-2-methylphenyl)ethyl)-1,2,4-oxadiazole-5-carboxamide] | 3.05 nM | > 10000 nM
COc1cc2c(cc1N1CCN(C3CC(c4ccc([C@@H]5CCC(=O)NC5=O)cc4)C3)CC1)[nH]c1ncnc(-c3ccc([C@@H](C)NC(=O)c4nc(C(C)(C)C)no4)c(C)c3F)c12 (stereo partly drawn) [Example 55, 3-(tert-butyl)-N—((R)-1-(4-(7-(4-(3-(4-((S)-2,6-dioxopiperidin-3-yl)phenyl)cyclobutyl)piperazin-1-yl)-6-methoxy-9H-pyrimido[4,5-b]indol-4-yl)-3-fluoro-2-methylphenyl)ethyl)-1,2,4-oxadiazole-5-carboxamide] | 6.97 nM | > 10000 nM
COc1cc2c(cc1N1CCN(C3CC(c4ccc([C@H]5CCC(=O)NC5=O)cc4)C3)CC1)[nH]c1ncnc(-c3ccc([C@@H](C)NC(=O)c4nc(C(C)(C)C)no4)c(C)c3F)c12 (stereo partly drawn) [Example 56, 3-(tert-butyl)-N—((R)-1-(4-(7-(4-(3-(4-((R)-2,6-dioxopiperidin-3-yl)phenyl)cyclobutyl)piperazin-1-yl)-6-methoxy-9H-pyrimido[4,5-b]indol-4-yl)-3-fluoro-2-methylphenyl)ethyl)-1,2,4-oxadiazole-5-carboxamide] | 10.3 nM | > 10000 nM
COc1cc2c(cc1N1CCN(C3CCN(c4cccc(C5CCC(=O)NC5=O)c4)C3)CC1)[nH]c1ncnc(-c3ccc([C@@H](C)NC(=O)c4nc(C(C)(C)C)no4)c(C)c3F)c12 (stereo partly drawn) [Example 57, 3-(tert-butyl)-N-((1R)-1-(4-(7-(4-(1-(3-(2,6-dioxopiperidin-3-yl)phenyl)pyrrolidin-3-yl)piperazin-1-yl)-6-methoxy-9H-pyrimido[4,5-b]indol-4-yl)-3-fluoro-2-methylphenyl)ethyl)-1,2,4-oxadiazole-5-carboxamide] | 9.6 nM | > 10000 nM
COc1cc2c(cc1N1CCN(C3CC(c4ccc([C@@H]5CCC(=O)NC5=O)cc4)C3)CC1)[nH]c1ncnc(-c3ccc([C@@H](C)NC(=O)c4noc(C(C)(C)C)n4)c(C)c3F)c12 (stereo partly drawn) [Example 59, 5-(tert-butyl)-N—((R)-1-(4-(7-(4-(3-(4-((S)-2,6-dioxopiperidin-3-yl)phenyl)cyclobutyl)piperazin-1-yl)-6-methoxy-9H-pyrimido[4,5-b]indol-4-yl)-3-fluoro-2-methylphenyl)ethyl)-1,2,4-oxadiazole-3-carboxamide] | 4.55 nM | > 10000 nM
COc1cc2c(cc1N1CCN(C3CC(c4ccc([C@H]5CCC(=O)NC5=O)cc4)C3)CC1)[nH]c1ncnc(-c3ccc([C@@H](C)NC(=O)c4noc(C(C)(C)C)n4)c(C)c3F)c12 (stereo partly drawn) [Example 60, 5-(tert-butyl)-N—((R)-1-(4-(7-(4-(3-(4-((R)-2,6-dioxopiperidin-3-yl)phenyl)cyclobutyl)piperazin-1-yl)-6-methoxy-9H-pyrimido[4,5-b]indol-4-yl)-3-fluoro-2-methylphenyl)ethyl)-1,2,4-oxadiazole-3-carboxamide] | 4.97 nM | > 10000 nM
COc1cc2c(cc1N1CCN(C3CCN(c4cccc(C5CCC(=O)NC5=O)c4)C3)CC1)[nH]c1ncnc(-c3ccc([C@@H](C)NC(=O)c4noc(C(C)(C)C)n4)c(C)c3F)c12 (stereo partly drawn) [Example 61, 5-(tert-butyl)-N-((1R)-1-(4-(7-(4-(1-(3-(2,6-dioxopiperidin-3-yl)phenyl)pyrrolidin-3-yl)piperazin-1-yl)-6-methoxy-9H-pyrimido[4,5-b]indol-4-yl)-3-fluoro-2-methylphenyl)ethyl)-1,2,4-oxadiazole-3-carboxamide] | 5.52 nM | > 10000 nM
Cc1c([C@@H](C)NC(=O)c2noc(C(C)(C)C)n2)ccc(-c2ncnc3[nH]c4cc(N5CCN(C6CN(c7ccc(N8CCC(=O)NC8=O)cc7)C6)CC5)ccc4c23)c1F [Example 63, (R)-5-(tert-butyl)-N-(1-(4-(7-(4-(1-(4-(2,4-dioxotetrahydropyrimidin-1(2H)-yl)phenyl)azetidin-3-yl)piperazin-1-yl)-9H-pyrimido[4,5-b]indol-4-yl)-3-fluoro-2-methylphenyl)ethyl)-1,2,4-oxadiazole-3-carboxamide] | 6.82 nM | > 10000 nM
Cc1c([C@@H](C)NC(=O)c2nc(C3(C)CC3)no2)ccc(-c2ncnc3[nH]c4cc(N5CCN(CC6CCN(c7ccc(N8CCC(=O)NC8=O)cc7)CC6)CC5)ccc4c23)c1F [Example 64, (R)—N-(1-(4-(7-(4-((1-(4-(2,4-dioxotetrahydropyrimidin-1(2H)-yl)phenyl)piperidin-4-yl)methyl)piperazin-1-yl)-9H-pyrimido[4,5-b]indol-4-yl)-3-fluoro-2-methylphenyl)ethyl)-3-(1-methylcyclopropyl)-1,2,4-oxadiazole-5-carboxamide] | 3.02 nM | > 10000 nM
Cc1c([C@@H](C)NC(=O)c2nc(C3(C)CC3)no2)ccc(-c2ncnc3[nH]c4cc(N5CCN(C6CC(c7ccc([C@@H]8CCC(=O)NC8=O)cc7)C6)CC5)ccc4c23)c1F (stereo partly drawn) [Example 65, N—((R)-1-(4-(7-(4-(3-(4-((S)-2,6-dioxopiperidin-3-yl)phenyl)cyclobutyl)piperazin-1-yl)-9H-pyrimido[4,5-b]indol-4-yl)-3-fluoro-2-methylphenyl)ethyl)-3-(1-methylcyclopropyl)-1,2,4-oxadiazole-5-carboxamide] | 4.24 nM | > 10000 nM

Compounds with a lower DC50 (BTK), results first:

DC50 (BTK) | SMILES | IC50 (HEK-293 cells)
1.08 nM | COc1cc2c(cc1N1CCN(C3CC(c4ccc([C@@H]5CCC(=O)NC5=O)cc4)C3)CC1)[nH]c1ncnc(-c3ccc([C@@H](C)NC(=O)c4nc(C(C)(C)C)no4)c(C)c3)c12 (stereo partly drawn) [Example 49, 3-(tert-butyl)-N—((R)-1-(4-(7-(4-(3-(4-((S)-2,6-dioxopiperidin-3-yl)phenyl)cyclobutyl)piperazin-1-yl)-6-methoxy-9H-pyrimido[4,5-b]indol-4-yl)-2-methylphenyl)ethyl)-1,2,4-oxadiazole-5-carboxamide] | > 10000 nM
0.171 nM | COc1cc2c(cc1N1CCN(C3CC(c4ccc([C@H]5CCC(=O)NC5=O)cc4)C3)CC1)[nH]c1ncnc(-c3ccc([C@@H](C)NC(=O)c4nc(C(C)(C)C)no4)c(C)c3)c12 (stereo partly drawn) [Example 50, 3-(tert-butyl)-N—((R)-1-(4-(7-(4-(3-(4-((R)-2,6-dioxopiperidin-3-yl)phenyl)cyclobutyl)piperazin-1-yl)-6-methoxy-9H-pyrimido[4,5-b]indol-4-yl)-2-methylphenyl)ethyl)-1,2,4-oxadiazole-5-carboxamide] | > 10000 nM
0.987 nM | COc1cc2c(cc1N1CCN(C3CCN(c4cccc(C5CCC(=O)NC5=O)c4)C3)CC1)[nH]c1ncnc(-c3ccc([C@@H](C)NC(=O)c4nc(C(C)(C)C)no4)c(C)c3)c12 (stereo partly drawn) [Example 51, 3-(tert-butyl)-N-((1R)-1-(4-(7-(4-(1-(3-(2,6-dioxopiperidin-3-yl)phenyl)pyrrolidin-3-yl)piperazin-1-yl)-6-methoxy-9H-pyrimido[4,5-b]indol-4-yl)-2-methylphenyl)ethyl)-1,2,4-oxadiazole-5-carboxamide] | > 10000 nM
0.361 nM | COc1cc2c(cc1N1CCN(CC3CCN(c4ccc(N5CCC(=O)NC5=O)cc4)CC3)CC1)[nH]c1ncnc(-c3ccc([C@@H](C)NC(=O)c4nc(C5(C)CC5)no4)c(C)c3)c12 [Example 52, (R)—N-(1-(4-(7-(4-((1-(4-(2,4-dioxotetrahydropyrimidin-1(2H)-yl)phenyl)piperidin-4-yl)methyl)piperazin-1-yl)-6-methoxy-9H-pyrimido[4,5-b]indol-4-yl)-2-methylphenyl)ethyl)-3-(1-methylcyclopropyl)-1,2,4-oxadiazole-5-carboxamide] | > 10000 nM
1.87 nM | COc1cc2c(cc1N1CCN(CC3CCN(c4ccc(N5CCC(=O)NC5=O)cc4)CC3)CC1)[nH]c1ncnc(-c3ccc([C@@H](C)NC(=O)c4noc(C(C)(C)C)n4)c(C)c3F)c12 [Example 58, (R)-5-(tert-butyl)-N-(1-(4-(7-(4-((1-(4-(2,4-dioxotetrahydropyrimidin-1(2H)-yl)phenyl)piperidin-4-yl)methyl)piperazin-1-yl)-6-methoxy-9H-pyrimido[4,5-b]indol-4-yl)-3-fluoro-2-methylphenyl)ethyl)-1,2,4-oxadiazole-3-carboxamide] | > 10000 nM
0.414 nM | COc1cc2c(cc1N1CCN(CC3CCN(c4ccc(N5CCC(=O)NC5=O)cc4)CC3)CC1)[nH]c1ncnc(-c3cc(C)c([C@@H](C)NC(=O)c4nc(C(C)(C)C)no4)cc3F)c12 [Example 62, (R)-3-(tert-butyl)-N-(1-(4-(7-(4-((1-(4-(2,4-dioxotetrahydropyrimidin-1(2H)-yl)phenyl)piperidin-4-yl)methyl)piperazin-1-yl)-6-methoxy-9H-pyrimido[4,5-b]indol-4-yl)-5-fluoro-2-methylphenyl)ethyl)-1,2,4-oxadiazole-5-carboxamide] | > 10000 nM
